SMILES strings stand for the structures. Read-outs that look alike come from different tables or passages of the source.

Data on 1 compound can be found in patent publication EP4168396B1, “COMPOUNDS FOR THE TREATMENT OF NEURODEGENERATIVE DISEASES” (Universite De Franche Comte, priority 2020, dated 2021).

The target in assay [1] is T1, human recombinant acetylcholinesterase (hAChE) (Homo sapiens, UniProt P22303).
T1 construct: purchased Sigma-Aldrich
The assay is described as follows: Cholinesterase inhibition assay (Ellman), hAChE. The assay is classed as biochemical. On the procedure: Inhibitory activities of the test compounds against the human cholinesterases were measured using the spectrophotometric method described by Ellman et al.^4, as modified for 96-well microplates. 5,5'-Dithiobis-(2-nitrobenzoic acid) (DTNB), acetylthiocholine iodide (ATC), butyrylthiocholine iodide (BTC), and human recombinant acetylcholinesterase (hAChE) were purchased from Sigma-Aldrich. Human butyrylcholinesterase (hBuChE) isolated from human plasma was from Vivonics (Bedford, MA, USA). […] In the first step of Ellman's method 25 µL of the test compound (or mixture DMSO/water in appropriate ratio; i.e. blank samples) was incubated in 0.1 M phosphate buffer (200 µL, pH= 8.0) with DTNB (20 µL; 0.0025M) and the enzyme (20 µL; hAChE or hBuChE) in temperature 36 °C. […] All compounds were tested at screening concentration of 10 µM. Percent of inhibition was calculated from 100-(S/B)×100, where S and B were the respective enzyme activities with and without the test sample, respectively. […] All reactions were performed in triplicate. The IC50 values were calculated using nonlinear regression (GraphPad Prism 5 [GraphPad Software, San Diego California USA 5.00]) by plotting the residual enzyme activities against the applied inhibitor concentration. Tacrine was used as a reference compound.
Background: Ellman's reagent forms a yellow product with free thiols.

In another assay the target is T2, Human recombinant GSK-3β (Homo sapiens, UniProt P49841).
T2 construct: purchased Millipore (Millipore Iberica S.A.U.)
The assay is described as follows: GSK-3β inhibition in vitro assay (Kinase-Glo luminescence). It counts as biochemical. The settings on record: read-out: Gsk3β IC50. On the procedure: Human recombinant GSK-3β, prephosphorylated polypeptide substrate and white 96-well plates were purchased from Millipore (Millipore Iberica S.A.U.). Kinase-Glo Luminescent Kinase Assay was obtained from Promega (Promega Biotech Iberica, SL). Adenosinetriphosphate (ATP) and all other reagents were from Sigma-Aldrich. Assay buffer contained 50 mM 4-(2-hydroxyethyl)-1- piperazineethanesulfonic acid (HEPES) (pH 7.5), 1 mM ethylenediaminetetraacetic acid (EDTA), 1 mM ethylene glycol tetraacetic acid (EGTA), and 15 mM magnesium acetate. The in solution experiments for GSK-3β inhibition analysis were performed by following the method developed by Baki et al.^18. In a typical assay, 10 µL of test compound (dissolved in DMSO at 1 mM concentration and diluted in advance in assay buffer to the desired concentration) and 10 µL (20 ng) of enzyme were added to each well in presence of 20 µL of assay buffer containing GSM substrate and ATP in order to reach a 25 µM and 1 µM final concentration respectively. […] After a 30 min incubation time at 30 °C, the enzymatic reaction was stopped by adding 40 µL of Kinase-Glo reagent. Glow-type luminescence was recorded after 10 min using a VictorX 3 PerkinElmer plate reader. […]. The linear regression parameters were determined and the IC50 extrapolated (GraphPad Prism 4.0, GraphPad Software Inc.).

In another assay the target is T3, human H3 receptor (Homo sapiens, UniProt Q9Y5N1).
T3 construct: expressed in transfected cells; host or cells: CHO-K1
The assay is described as follows: H3 Receptor Binding Assay (radioligand binding). The conditions noted are these: membranes from CHO-K1 cells, [3H]-N-α-methylhistamine 1.0 nM; read-out: H3R Ki [nM] ± SEM. As to the method: 10 mM stock solutions of compounds to be tested were prepared in DMSO.
Radioligand binding was performed using membranes from CHO-K1 cells stably transfected with the human H3 receptor. All assays were carried out in duplicates. 50 µl working solution of the tested compounds, 50 µl [3H]-N-α-methylhistamine (spec. act. 82.9 Ci/mmol, final concentration 1.0 nM) and 150 µl diluted membranes (15 µg protein per well) prepared in assay buffer (50 mM Tris, pH 7.4, 5 mM MgCl2) were transferred to polypropylene 96-well microplate using 96-wells pipetting station Rainin Liquidator (MettlerToledo). […] Microplate was covered with a sealing tape, mixed and incubated for 60 minutes at 27°C. The reaction was terminated by rapid filtration through GF/B filter mate presoaked with 0.5% polyethyleneimine for 30 minutes. Five rapid washes with 300 µl 50 mM Tris buffer (4°C, pH 7.4) were performed using 96-well FilterMate harvester (PerkinElmer, USA). The filter mates were dried at 37°C in forced air fan incubator and then solid scintillator MeltiLex was melted on filter mates at 90°C for 4 minutes. Radioactivity was counted in MicroBeta2 scintillation counter (PerkinElmer). Data were fitted to a one-site curve-fitting equation with Prism 5 (GraphPad Software) and Ki values were estimated from the Cheng-Prusoff equation.

For assay [2], the target named is T4, Human butyrylcholinesterase (hBuChE) (Homo sapiens, UniProt P06276).
T4 construct: Human butyrylcholinesterase (hBuChE) isolated from human plasma was from Vivonics; purchased Vivonics (Bedford, MA, USA); host or cells: human plasma
The assay is described as follows: Cholinesterase inhibition assay (Ellman), hBuChE. The assay is classed as biochemical. On the procedure:
Inhibitory activities of the test compounds against the human cholinesterases were measured using the spectrophotometric method described by Ellman et al.^4, as modified for 96-well microplates. 5,5'-Dithiobis-(2-nitrobenzoic acid) (DTNB), acetylthiocholine iodide (ATC), butyrylthiocholine iodide (BTC), and human recombinant acetylcholinesterase (hAChE) were purchased from Sigma-Aldrich. Human butyrylcholinesterase (hBuChE) isolated from human plasma was from Vivonics (Bedford, MA, USA). […] The stock solutions of the test compounds were prepared by dissolving in DMSO to obtain a concentration of 0.0034M. They were further diluted in water to give appropriate concentration in a well. In the first step of Ellman's method 25 µL of the test compound (or mixture DMSO/water in appropriate ratio; i.e. blank samples) was incubated in 0.1 M phosphate buffer (200 µL, pH= 8.0) with DTNB (20 µL; 0.0025M) and the enzyme (20 µL; hAChE or hBuChE) in temperature 36 °C. […] All compounds were tested at screening concentration of 10 µM. Percent of inhibition was calculated from 100-(S/B)×100, where S and B were the respective enzyme activities with and without the test sample, respectively. […] All reactions were performed in triplicate. The IC50 values were calculated using nonlinear regression (GraphPad Prism 5 [GraphPad Software, San Diego California USA 5.00]) by plotting the residual enzyme activities against the applied inhibitor concentration. Tacrine was used as a reference compound.

For assay [3], the system named is voltage-gated Ca^2+ channels (VGCC). The assay is described as follows: Calcium channel antagonist assay (cytosolic Ca2+, Fluo-4). The assay is classed as cell-based. The conditions noted are these: SH-SY5Y cells, K+ 70 mM. As to the method: The cytosolic Ca2+ has been measured in SH-SY5Y cells. SH-SY5Y cells were maintained similarly to what was previously described56. Free cytosolic Ca2+ was measured using the fluorescent Ca2+ indicator Fluo-4/AM (Fluo-4 acetomethoxyester). SH-SY5Y cells were seeded onto 96-well black plates at a density of 10^5 cells per well, achieving confluence after 48 h. Cells were washed with Krebs-Hepes solution (KH, in mM: 144 NaCl, 5.9 KCl, 1.2 MgCl2, 2 CaCl2, 11 D-glucose, 10 HEPES, pH 7.4). Cells were loaded with 10 µM Fluo-4/AM and 0.2% pluronic acid in KH and incubated for 45 min at 37 °C in the dark. Then, cells were washed twice with KH to remove the excess of probe. Tested compounds were incubated 10 min before K+ 70 mM was applied to evoke the increment of cytosolic Ca2+. To normalize Fluo-4 signals, Triton X-100 (5%) and 1 M MnCl2 were applied to register both maximal and minimal fluorescence, respectively. The experiments were analyzed at excitation and emission wavelengths of 485 and 520 nm, respectively, and fluorescence was measured in a fluorescence microplate reader (FLUOstar Optima, BMG, Germany). Data were calculated as a percentage of Fmax - Fmin.
The blocking effect of the depolarization-induced Ca^2+ uptake was investigated in SH-SY5Y neuroblastoma cells stimulated with an extracellular concentration of K^+ 70 mM, which induces the cell Ca^2+ levels elevation by opening voltage-gated Ca^2+ channels (VGCC), monitored with the Ca^2+-sensitive fluorescent dye Fluo-4. Nimodipine was used as positive standard.

T1 sequence (P22303 32-614): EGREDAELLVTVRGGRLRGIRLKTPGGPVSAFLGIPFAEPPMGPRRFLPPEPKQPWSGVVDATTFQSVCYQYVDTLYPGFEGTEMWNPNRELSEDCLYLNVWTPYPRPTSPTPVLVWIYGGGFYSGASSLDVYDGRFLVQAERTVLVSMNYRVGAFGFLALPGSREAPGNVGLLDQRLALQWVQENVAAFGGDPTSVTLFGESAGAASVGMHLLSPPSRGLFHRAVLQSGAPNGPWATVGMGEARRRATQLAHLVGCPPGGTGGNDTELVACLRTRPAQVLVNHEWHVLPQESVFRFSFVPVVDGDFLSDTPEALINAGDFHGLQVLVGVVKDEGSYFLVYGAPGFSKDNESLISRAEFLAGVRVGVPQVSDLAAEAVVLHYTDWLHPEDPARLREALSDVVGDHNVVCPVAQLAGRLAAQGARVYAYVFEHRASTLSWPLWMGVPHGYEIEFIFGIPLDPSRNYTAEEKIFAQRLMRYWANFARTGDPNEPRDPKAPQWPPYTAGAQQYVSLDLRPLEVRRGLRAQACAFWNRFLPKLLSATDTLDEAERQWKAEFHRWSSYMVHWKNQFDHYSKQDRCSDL
T4 sequence (P06276 29-602): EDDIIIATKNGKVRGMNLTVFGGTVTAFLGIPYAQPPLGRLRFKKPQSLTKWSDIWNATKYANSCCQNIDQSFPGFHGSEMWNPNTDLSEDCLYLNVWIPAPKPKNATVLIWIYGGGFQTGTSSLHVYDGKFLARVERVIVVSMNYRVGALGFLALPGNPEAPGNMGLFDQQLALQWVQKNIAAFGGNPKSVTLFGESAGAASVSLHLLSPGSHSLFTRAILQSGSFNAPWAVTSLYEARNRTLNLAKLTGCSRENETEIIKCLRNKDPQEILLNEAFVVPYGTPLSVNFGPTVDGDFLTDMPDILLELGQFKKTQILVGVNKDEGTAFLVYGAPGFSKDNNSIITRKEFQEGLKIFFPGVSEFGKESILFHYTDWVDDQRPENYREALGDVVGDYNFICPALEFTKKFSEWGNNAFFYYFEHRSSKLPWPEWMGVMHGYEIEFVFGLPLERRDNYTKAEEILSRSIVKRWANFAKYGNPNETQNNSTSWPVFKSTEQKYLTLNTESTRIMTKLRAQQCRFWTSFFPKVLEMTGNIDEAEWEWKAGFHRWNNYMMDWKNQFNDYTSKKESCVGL
T2 sequence (P49841 whole entry): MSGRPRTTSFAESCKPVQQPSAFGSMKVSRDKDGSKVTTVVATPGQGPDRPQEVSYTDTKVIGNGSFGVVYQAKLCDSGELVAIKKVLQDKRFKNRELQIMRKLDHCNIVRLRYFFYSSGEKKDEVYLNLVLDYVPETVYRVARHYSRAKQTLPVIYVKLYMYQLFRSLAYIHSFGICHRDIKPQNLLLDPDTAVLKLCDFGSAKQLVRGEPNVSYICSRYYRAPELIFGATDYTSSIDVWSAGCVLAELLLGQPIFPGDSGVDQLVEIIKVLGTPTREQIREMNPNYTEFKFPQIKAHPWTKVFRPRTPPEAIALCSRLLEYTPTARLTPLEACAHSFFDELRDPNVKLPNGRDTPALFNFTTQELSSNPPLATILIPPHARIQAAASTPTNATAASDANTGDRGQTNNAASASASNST
T3 sequence (Q9Y5N1 whole entry): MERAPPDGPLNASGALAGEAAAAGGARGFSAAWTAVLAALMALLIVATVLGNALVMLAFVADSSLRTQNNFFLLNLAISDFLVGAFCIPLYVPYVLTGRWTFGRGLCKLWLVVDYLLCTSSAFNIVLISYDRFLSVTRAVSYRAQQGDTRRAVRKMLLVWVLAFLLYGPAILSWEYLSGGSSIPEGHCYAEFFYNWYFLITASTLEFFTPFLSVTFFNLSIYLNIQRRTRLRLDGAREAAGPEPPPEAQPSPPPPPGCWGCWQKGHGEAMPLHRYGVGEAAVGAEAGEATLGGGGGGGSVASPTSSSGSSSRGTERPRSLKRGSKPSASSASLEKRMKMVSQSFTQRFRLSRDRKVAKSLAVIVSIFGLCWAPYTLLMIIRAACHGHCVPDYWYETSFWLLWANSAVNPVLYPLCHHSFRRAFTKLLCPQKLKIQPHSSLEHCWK

The Ki is the equilibrium dissociation constant of an inhibitor or competing ligand from its target. With `CCOC(=O)C1=C(C)N(CCC2CCN(Cc3ccccc3)CC2)C(=O)NC1c1ccc(OCCCCN2CCCCC2)cc1` (stereo not drawn) [BIGI-BIH-D2, Ethyl 1-(2-(1-benzylpiperidin-4-yl)ethyl)-6-methyl-2-oxo-4-(4-(4-(piperidin-1-yl)butoxy)phenyl)-1,2,3,4-tetrahydropyrimidine-5-carboxylate], the IC50 was 0.123 µM in assay [1] (read-out: cholinesterases inhibition), 0.067 ± 0.001 µM in assay [1] (read-out: hAChE IC50), 106 µM at Human recombinant GSK-3β and 0.928 ± 0.032 µM in assay [2]. Also, the Ki at human H3 receptor turned out to be 0.6 ± 0.08 nM. In addition, the “Calcium Channel % inhibition at 10µM” value in assay [3] is recorded as 13%.
